Source: patent publication US20220370456A1, “COMBINATION THERAPIES COMPRISING SHP2 INHIBITORS AND EGFR TYROSINE KINASE INHIBITORS” (HUYABIO International, LLC, priority 2021, published 2022)
Read-outs that look alike come from different tables or passages of the source.

What was measured:
HCC827-ER1 cells = experiment: Cell viability assay (CellTiter-Glo), cell proliferation; format: cell-based; details: for IC50: HCC827-ER1, read on Day 5, CellTiter-Glo, read-out: Absolute IC50
Method: (§1) Cell lines and maintenance: Both cell lines (HCC827-ER1 and NCI-H1975) used for in vitro and in vivo studies were supplied by Crown Biosciences cell bank. […] NCI-H1975 cells were maintained in RPMI medium supplemented with 10% heat inactivated fetal bovine serum+100 ug/mL Hygromyocin at 37° C. in an atmosphere of 5% CO2 in air. The tumor cells were routinely subcultured twice weekly. The cells growing in an exponential growth phase were used for the in vitro cell potency and in vivo efficacy studies.
(§2) Cell Viability Assay: For cell cytotoxicity assays, cells were plated in 96-well plates and plating densities were determined on the basis of Crown Biosciences Cell line Database. Cells were plated at 2000 cells/well. Twenty four hours after plating, cells were treated with inhibitors at the indicated compound concentrations. On Day 5, cells were lysed with CellTiter-Glo® Luminescent Cell Viability Assay reagent (Promega) and luminescence was read using the EnVision Multi-plate reader. To calculate IC50s, a dose-response curve is generated using a nonlinear regression model with a sigmoidal dose response. IC50s were automatically generated by GraphPad Prism 8.0. The formula of surviving rate is shown below:
(§3) The surviving rate (%)=((LumTest article−LumMedium control)/(LumNone treated−LumMedium control))×100

[1] = tested on: NCI-H1975 (L858R/T790M/C797S) cells; experiment: as above; format: cell-based; details: for IC50: NCI-H1975 (L858R/T790M/C797S), read on Day 5, CellTiter-Glo, read-out: Absolute IC50
Method: as §1, §2, §3

HCC827-ER1 tumor = HCC827-ER1 tumor model, in vivo tumor volume; details: HCC827-ER1 tumors in female Balb/C Nude animals, during treatment, FIG. 2A-B
Method: Animals (6-8 weeks) were obtained from Shanghai Lingchang Biotechnology Co., Ltd (Shanghai, China) and were allowed to acclimate prior to tumor cell inoculation.
All cell lines were maintained in culture and cells in exponential growth phase were harvested and quantitated by cell counter before tumor inoculation. HCC827-ER1 tumor cells (5×10^7) in 0.1 ml of PBS mixed with Matrigel (1:1) inoculated into female Balb/C Nude animals, mean tumor approximately 325 mm^3 at the start of treatment.
The date of randomization and treatment initiation was denoted as day 0. Tumor volumes were measured twice per week in two dimensions using a caliper, and the volume will be expressed in mm^3 using the formula: V=(L×W×W)/2, where V is tumor volume, L is tumor length (the longest tumor dimension) and W is tumor width (the longest tumor dimension perpendicular to L). Dosing volume was 10 mL/kg/day. GH21005 were dissolved in HP-β-CD was dissolved with 200 ml of 50 mM sodium citrate (pH=4.2). Anti-PD-1 and Rat IgG2a were diluted in PBS.
Upon termination, tumors were collected 2 hours post last dose.

Row | SMILES | IC50 (HCC827-ER1 cells; 120 h) [nM] | potency in cell proliferation assay compared to TNO-155 and RMC-4550 (HCC827-ER1 cells; HCC827-ER1 cell model, FIG. 1A) | IC50 ([1]; Homo sapiens, 120 h) [nM] | potency in cell proliferation assay compared to TNO-155 and RMC-4550 ([1]; NCI-H1975 cell model, FIG. 1B) | effect on tumor volume (HCC827-ER1 tumor) | IC50 (HCC827-ER1 cells) [nM] | IC50 [1] [nM]
1 | C[C@@H]1OCC2(CCN(c3cnc(Sc4cccc(NC(=O)c5c(O)nc6n(c5=O)CCCC6)c4Cl)cn3)CC2)[C@@H]1N [GH21005(HBI-2376), N-(3-((5-((3S,4S)-4-amino-3-methyl-2-oxa-8-azaspiro[4.5]decan-8-yl)pyrazin-2-yl)thio)-2-chlorophenyl)-2-hydroxy-4-oxo-6,7,8,9-tetrahydro-4H-pyrido[1,2-a]pyrimidine-3-carboxamide] | 80 | superior potency | 960 | superior potency | did not result in a reduction of tumor volume |  | 
2 | N.N.[Cl][Pt][Cl] [Cisplatin] |  |  |  |  |  | 7170 | 10300
3 | C[C@H]1OCC2(CCN(c3cnc(Sc4ccnc(N)c4Cl)c(N)n3)CC2)[C@H]1N [GH21001(TNO-155)] | 1890 |  | > 10000 |  |  |  | 
4 | C=CC(=O)Nc1cc(Nc2nccc(-c3cn(C)c4ccccc34)n2)c(OC)cc1N(C)CCN(C)C [Osimertinib] | 2800 |  | […] |  | only a slight and temporary decrease in tumor volume, followed by growth in tumor volume |  | 
